Experimental data published in US20230365592A1 (Agios Pharmaceuticals, Inc., priority 2022, published 2023).

Target: T1, human PAH with the R408W mutation (Homo sapiens, UniProt P00439, R408W)
T1 construct: expressed in transfected cells
T1 sequence (P00439 1-452 R408W): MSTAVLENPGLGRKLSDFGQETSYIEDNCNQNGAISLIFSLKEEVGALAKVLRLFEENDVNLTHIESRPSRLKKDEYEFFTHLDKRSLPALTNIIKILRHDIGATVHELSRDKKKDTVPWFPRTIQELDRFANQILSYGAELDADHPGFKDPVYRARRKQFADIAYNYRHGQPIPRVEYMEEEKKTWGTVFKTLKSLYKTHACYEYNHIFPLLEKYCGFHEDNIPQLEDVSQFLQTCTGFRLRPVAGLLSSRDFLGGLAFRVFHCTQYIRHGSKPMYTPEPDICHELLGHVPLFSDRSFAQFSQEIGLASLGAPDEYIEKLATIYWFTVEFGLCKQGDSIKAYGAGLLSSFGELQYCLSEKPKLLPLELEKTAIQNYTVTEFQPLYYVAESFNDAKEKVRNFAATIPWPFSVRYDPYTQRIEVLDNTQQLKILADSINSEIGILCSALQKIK
Assay: Cell Based Phenylalanine Flux Assay;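 further: after compound treatment, cells received sepiapterin plus isotope-labelled Phenylalanine for 4 hours, then labelled Tyrosine in the medium was quantified, 10-point 2-fold dilution series run in duplicate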
Conditions: A375 cells expressing R408W PAH; 24 hrs with compound, then 20 µM sepiapterin and 800 µM 13C9,15N-Phenylalanine for 4 hours; 13C-Tyrosine by LC-MS; average where tested multiple times; read-out: AC50

AC50 [nM] | Compound
1000 to 5000 | Cn1nc(C(F)F)cc1C(=O)N1CCc2[nH]cnc2C1c1cc2ccccn2n1 (stereo not shown)
1000 to 5000 | CN(C)Cc1ccc2c(C(=O)N3CCc4[nH]cnc4C3c3cc4cccc(C(F)F)n4n3)cnn2c1 (stereo not shown)
1000 to 5000 | c1cnc(-c2nnc(N3CCc4[nH]cnc4C3c3cc4c(C5CC5)cccn4n3)o2)nc1 (stereo not shown)
1000 to 5000 | Cc1ccn2nc(C3c4nc[nH]c4CCN3C(=O)c3nnc(C(C)(C)C)o3)cc2c1 (stereo not shown)
1000 to 5000 | CN(C)CCc1ccc2c(C(=O)N3CCc4[nH]cnc4C3c3cc4c(F)cccn4n3)cnn2c1 (stereo not shown)
> 5000 | O=C(c1cnc(-c2ncccn2)o1)N1CCc2[nH]cnc2C1c1cc2c(C(F)F)cccn2n1 (stereo not shown)

Same assay, conditions: A375 cells expressing human PAH R408W; 24 hrs compound incubation; 13C-Tyrosine by LC-MS; average where tested multiple times; read-out: AC50

AC50 [nM] | Compound
500 to 1000 | FC(F)c1cccc2cc([C@@H]3c4nc[nH]c4CCN3c3ncc(C(F)(F)F)cn3)nn12 [Example 1812, (S)-4-(7-(difluoromethyl)pyrazolo[1,5-a]pyridin-2-yl)-5-(5-(trifluoromethyl)pyrimidin-2-yl)-4,5,6,7-tetrahydro-1H-imidazo[4,5-c]pyridine]
< 500 | O=C(c1ocnc1C1CC1)N1CCc2[nH]cnc2[C@H]1c1cc2c(F)cccn2n1 [Example 1986, (S)-(4-cyclopropyloxazol-5-yl)(4-(4-fluoropyrazolo[1,5-a]pyridin-2-yl)-1,4,6,7-tetrahydro-5H-imidazo[4,5-c]pyridin-5-yl)methanone]
> 5000 | O=C(c1nc2ccccc2s1)N1CCc2[nH]cnc2[C@@H]1c1cc2c(F)cccn2n1 [Example 2003, (R)-benzo[d]thiazol-2-yl(4-(4-fluoropyrazolo[1,5-a]pyridin-2-yl)-1,4,6,7-tetrahydro-5H-imidazo[4,5-c]pyridin-5-yl)methanone]
< 500 | Cc1c[nH]nc1-c1nnc(C(=O)N2CCc3[nH]cnc3[C@H]2c2cc3c(C)cccn3n2)o1 [Example 2292, (S)-(5-(4-methyl-1H-pyrazol-3-yl)-1,3,4-oxadiazol-2-yl)(4-(4-methylpyrazolo[1,5-a]pyridin-2-yl)-1,4,6,7-tetrahydro-5H-imidazo[4,5-c]pyridin-5-yl)methanone]
> 5000 | FC(F)c1cccn2nc([C@H]3c4nc[nH]c4CCN3c3cnccn3)cc12 [Example 1816, (R)-4-(4-(difluoromethyl)pyrazolo[1,5-a]pyridin-2-yl)-5-(pyrazin-2-yl)-4,5,6,7-tetrahydro-1H-imidazo[4,5-c]pyridine]

Same assay, conditions: A375 cells expressing human R408W PAH; 24 hrs compound incubation; 13C-Tyrosine by LC-MS; average where tested multiple times; read-out: AC50

Compound | AC50 [nM]
O=C(c1ocnc1C(F)F)N1CCc2[nH]cnc2[C@H]1c1cc2cccc(F)n2n1 [Example 1202, (S)-(4-(difluoromethyl)oxazol-5-yl)(4-(7-fluoropyrazolo[1,5-a]pyridin-2-yl)-6,7-dihydro-1H-imidazo[4,5-c]pyridin-5(4H)-yl)methanone] | < 500
CC(C)(F)c1nc(C(F)F)c(C(=O)N2CCc3[nH]cnc3[C@@H]2c2cc3cccc(Cl)n3n2)o1 [Example 1233, (R)-(4-(7-chloropyrazolo[1,5-a]pyridin-2-yl)-6,7-dihydro-1H-imidazo[4,5-c]pyridin-5(4H)-yl)(4-(difluoromethyl)-2-(2-fluoropropan-2-yl)oxazol-5-yl)methanone] | 1000 to 5000
O=C(N1CCc2[nH]cnc2[C@H]1c1cc2ccccn2n1)C(F)(F)C1(O)CCC1 [Example 638, (S)-2,2-difluoro-2-(1-hydroxycyclobutyl)-1-(4-(pyrazolo[1,5-a]pyridin-2-yl)-6,7-dihydro-1H-imidazo[4,5-c]pyridin-5(4H)-yl)ethanone] | < 500
Cc1cccc2cc([C@H]3c4nc[nH]c4CCN3C(=O)c3ocnc3C(F)F)nn12 [Example 793, (R)-(4-(difluoromethyl)oxazol-5-yl)(4-(7-methylpyrazolo[1,5-a]pyridin-2-yl)-6,7-dihydro-1H-imidazo[4,5-c]pyridin-5(4H)-yl)methanone] | 500 to 1000
O=C(c1cnn2ccccc12)N1CCc2[nH]cnc2[C@H]1c1cc2c(C(F)(F)F)cccn2n1 [Example 1270, (S)-pyrazolo[1,5-a]pyridin-3-yl(4-(4-(trifluoromethyl)pyrazolo[1,5-a]pyridin-2-yl)-6,7-dihydro-1H-imidazo[4,5-c]pyridin-5(4H)-yl)methanone] | < 500
CC(C)(F)c1nnc(C(=O)N2CCc3[nH]cnc3[C@H]2c2cc3cccc(F)n3n2)o1 [Example 987, (S)-(5-(2-fluoropropan-2-yl)-1,3,4-oxadiazol-2-yl)(4-(7-fluoropyrazolo[1,5-a]pyridin-2-yl)-6,7-dihydro-1H-imidazo[4,5-c]pyridin-5(4H)-yl)methanone] | 500 to 1000
Cc1cccn2nc([C@@H]3c4nc[nH]c4CCN3C(=O)c3nnc(-c4ccn(C(F)F)n4)o3)cc12 [Example 822, (S)-(5-(1-(difluoromethyl)-1H-pyrazol-3-yl)-1,3,4-oxadiazol-2-yl)(4-(4-methylpyrazolo[1,5-a]pyridin-2-yl)-6,7-dihydro-1H-imidazo[4,5-c]pyridin-5(4H)-yl)methanone] | < 500
Cc1cccn2nc([C@H]3c4nc[nH]c4CCN3C(=O)c3nnc(-c4ccn(C(F)F)n4)o3)cc12 [Example 823, (R)-(5-(1-(difluoromethyl)-1H-pyrazol-3-yl)-1,3,4-oxadiazol-2-yl)(4-(4-methylpyrazolo[1,5-a]pyridin-2-yl)-6,7-dihydro-1H-imidazo[4,5-c]pyridin-5(4H)-yl)methanone] | 1000 to 5000
O=C(c1cnco1)N1CCc2[nH]cnc2[C@H]1c1cc2c(F)cccn2n1 [Example 760, (S)-(4-(4-fluoropyrazolo[1,5-a]pyridin-2-yl)-6,7-dihydro-1H-imidazo[4,5-c]pyridin-5(4H)-yl)(oxazol-5-yl)methanone] | 1000 to 5000

The next lines start with the values.

AC50 [nM] | Compound
> 5000 | Cn1nccc1-c1nnc(C(=O)N2CCc3[nH]cnc3[C@@H]2c2cc3cccc(F)n3n2)o1 [Example 1527, (R)-(4-(7-fluoropyrazolo[1,5-a]pyridin-2-yl)-6,7-dihydro-1H-imidazo[4,5-c]pyridin-5(4H)-yl)(5-(1-methyl-1H-pyrazol-5-yl)-1,3,4-oxadiazol-2-yl)methanone]
< 500 | O=C(c1nnc(-c2cnn(C(F)(F)F)c2)o1)N1CCc2[nH]cnc2[C@H]1c1cc2c(Cl)cccn2n1 [Example 1504, (S)-(4-(4-chloropyrazolo[1,5-a]pyridin-2-yl)-6,7-dihydro-1H-imidazo[4,5-c]pyridin-5(4H)-yl)(5-(1-(trifluoromethyl)-1H-pyrazol-4-yl)-1,3,4-oxadiazol-2-yl)methanone]
> 5000 | Cc1cccn2nc([C@H]3c4nc[nH]c4CCN3c3nnc(C4CC4)o3)cc12 [Example 1588, (R)-2-cyclopropyl-5-(4-(4-methylpyrazolo[1,5-a]pyridin-2-yl)-6,7-dihydro-1H-imidazo[4,5-c]pyridin-5(4H)-yl)-1,3,4-oxadiazole]
500 to 1000 | FC(F)c1cccc2cc([C@@H]3c4nc[nH]c4CCN3c3nnc(-c4ccccn4)o3)nn12 [Example 1626, (S)-2-(4-(7-(difluoromethyl)pyrazolo[1,5-a]pyridin-2-yl)-6,7-dihydro-1H-imidazo[4,5-c]pyridin-5(4H)-yl)-5-(pyridin-2-yl)-1,3,4-oxadiazole]
500 to 1000 | Cc1cccn2nc([C@@H]3c4nc[nH]c4CCN3c3nc4ccccc4o3)cc12 [Example 1643, (S)-2-(4-(4-methylpyrazolo[1,5-a]pyridin-2-yl)-6,7-dihydro-1H-imidazo[4,5-c]pyridin-5(4H)-yl)benzo[d]oxazole]
